Reference: the NIST ThermoML archive (doi:10.1016/j.jct.2009.10.002)

Legend:
[1] = mn = molality of the nth substance listed, in mol/kg; conditions: 298.15 K, 101 kPa, Liquid, Vibrating tube method
[2] = 298.15 K; 101.33 kPa; Liquid; Vibrating tube method

CC(=O)Nc1ccccc1O [N-(2-hydroxyphenyl)ethanamide] + CCCCCCCCO
[1]
Conditions	mass density [kg/m3]
m1 = 0.001728	822.19
m1 = 0.002758	822.23
m1 = 0.003165	822.24
m1 = 0.003211	822.24
m1 = 0.004195	822.28
m1 = 0.005164	822.31
m1 = 0.006563	822.36
m1 = 0.01154	822.56
m1 = 0.0164	822.75
m1 = 0.01909	822.86
m1 = 0.02399	823.06
m1 = 0.03356	823.46

CC(=O)Nc1ccccc1 [N-phenylethanamide] + CCCCCCCCO
[1]
Conditions	mass density [kg/m3]
m1 = 0.002139	822.18
m1 = 0.00565	822.29
m1 = 0.01113	822.46
m1 = 0.01413	822.55
m1 = 0.02434	822.84
m1 = 0.02629	822.9
m1 = 0.05259	823.67
m1 = 0.08132	824.49
m1 = 0.1056	825.18
m1 = 0.1482	826.35
m1 = 0.1847	827.37
m1 = 0.2858	830.1
m1 = 0.3663	832.25

CC(=O)Nc1ccccc1C(=O)O [2-acetamidobenzoic acid] + CCCCCCCCO
[1]
Conditions	mass density [kg/m3]
m1 = 0.004871	822.31
m1 = 0.008993	822.47
m1 = 0.01189	822.58
m1 = 0.01818	822.82
m1 = 0.02358	823.02
m1 = 0.03392	823.42
m1 = 0.05837	824.35
m1 = 0.0873	825.4
m1 = 0.1273	826.83
m1 = 0.1682	828.43

NC(=O)c1ccccc1 [benzamide] + CCCCCCCCO
[1]
Conditions	mass density [kg/m3]
m1 = 0.004751	822.25
m1 = 0.009145	822.4
m1 = 0.01194	822.49
m1 = 0.01802	822.68
m1 = 0.02473	822.9
m1 = 0.03952	823.38
m1 = 0.07569	824.52
m1 = 0.108	825.55
m1 = 0.1331	826.37
m1 = 0.179	827.87

CCOc1ccc(NC(C)=O)cc1 [N-(4-ethoxyphenyl)ethanamide] + CCCCCCCCO
[1]
Conditions	mass density [kg/m3]
m1 = 0.00971	822.4
m1 = 0.01263	822.48
m1 = 0.01969	822.67
m1 = 0.0229	822.75
m1 = 0.02432	822.79
m1 = 0.02706	822.86
m1 = 0.03645	823.12
m1 = 0.04962	823.48
m1 = 0.06288	823.85
m1 = 0.08214	824.37
m1 = 0.105	824.98
m1 = 0.1351	825.83
m1 = 0.1591	826.63

CCCCCCCCO [octan-1-ol]
Conditions	mass density [kg/m3]
[2]	822.11

O=C(O)c1ccccc1 [benzoic acid] + CCCCCCCCO
[1]
Conditions	mass density [kg/m3]
m1 = 0.002452	822.18
m1 = 0.005198	822.27
m1 = 0.01254	822.53
m1 = 0.01324	822.55
m1 = 0.03589	823.34
m1 = 0.06692	824.43
m1 = 0.198	828.84
m1 = 0.3209	832.91
m1 = 0.4227	836.12
m1 = 0.5096	838.89

CC(=O)Nc1ccc(C(=O)O)cc1 [4-acetamidobenzoic acid] + CCCCCCCCO
[1]
Conditions	mass density [kg/m3]
m1 = 0.000708	822.14
m1 = 0.00077	822.15
m1 = 0.000914	822.16
m1 = 0.001192	822.17
m1 = 0.001367	822.18
m1 = 0.002266	822.23
m1 = 0.002865	822.26
m1 = 0.002919	822.26
m1 = 0.003657	822.3
m1 = 0.005744	822.42
m1 = 0.01212	822.76
m1 = 0.01816	823.12
m1 = 0.02407	823.47
m1 = 0.0284	823.73
m1 = 0.03621	824.17
